Assay results: patent US20240316079A1, “USE OF AKR1C3-ACTIVATED COMPOUND” (OBI PHARMA, INC., priority 2021, published 2024)
Like-named read-outs stand apart in the source and are kept apart here.

Assays:
LU2057 PDX = assay: Lung cancer PDX model LU2057 (low AKR1C3); format: in vivo, mice
Procedure: (§1) Anti-tumor activity of 3424 in PDX models was assessed at CrownBio Bioscience (Beijing, China) Inc. using female BALB/c nude mice (6-7 weeks old, Beijing Anikeeper Biotech Co., Ltd, Beijing, China). Tumor fragments (PA1280, GA6201, LU2057 and LU2505) from stock mice inoculated with selected primary human cancer tissues (pancreatic, gastric cancer, and lung) were harvested and used for inoculation into BALB/c nude mice. Each mouse was inoculated subcutaneously for tumor development. Mice were allocated randomly into experimental groups when the average tumor size reached ˜100 mm^3) by using StudyDirector™ Ver 3.1.399.19 (Studylog Systems, Inc., S. San Francisco, CA, USA). Prodrug 3424 was administered IV at the indicated doses with a regimen of Q7D×3. Each group consisted of 5-6 mice. The grouping day was denoted as Day 0. Prodrug 3424 was administrated to the tumor-bearing mice from Day 0 through Days as indicated for each study.

NCI-H1792 = assay: In vitro proliferation assay, NSCLC cell line NCI-H1792; format: cell-based; settings: Homo sapiens, 72 hours of drug exposure, read-out: 3424 IC50
Procedure: (§2) IC50 was calculated as described above.

HLF = assay: In vitro proliferation assay, liver cancer cell line HLF; format: cell-based; settings: Homo sapiens, 96 hours of drug exposure, AKR1C3 protein Low, read-out: 3424 IC50
Procedure: as §2

SNU-398 = assay: In vitro proliferation assay, liver cancer cell line SNU-398; format: cell-based; settings: Homo sapiens, 96 hours of drug exposure, AKR1C3 protein Low, read-out: 3424 IC50
Procedure: as §2

VCaP xenograft = assay: Castration-resistant prostate cancer VCaP xenograft model
Procedure: Death and observed clinical signs were recorded on the basis of the numbers of animals within each subset.

NCI-H23 = assay: In vitro proliferation assay, NSCLC cell line NCI-H23; format: cell-based; settings: Homo sapiens, 72 hours of drug exposure, read-out: 3424 IC50
Procedure: as §2

NCI-H2110 = assay: In vitro proliferation assay, NSCLC cell line NCI-H2110; format: cell-based; settings: Homo sapiens, 72 hours of drug exposure, read-out: 3424 IC50
Procedure: as §2

NCI-H2228 = assay: In vitro proliferation assay, NSCLC cell line NCI-H2228; format: cell-based, human
Procedure: as §2

[1] = system: H460 subcutaneous xenograft; format: in vivo, mice; settings: 1 week off, Q7D × 2
Procedure: (§3) In vivo anti-tumor activity of 3424 was evaluated using GFP-expressing cancer cell lines in an orthotopic liver cancer model (HepG2) and a subcutaneous lung cancer model (H460) CDX models at AntiCancer, Inc (Beijing, China). Female athymic nude mice (6 weeks; BALB/c-nu, Beijing HFK Bioscience Co., Ltd., Beijing, China) were used in the studies. Each mouse was implanted with a HepG2-GFP tumor chunk (˜1 mm^3 in diameter) in the right lobe of the liver for tumor development or inoculated subcutaneously with H460-GFP tumor chunk (˜1 mm^3 in diameter). About 3-10 days later, whole mouse body scan was performed using FluorVivo Model-100 fluorescence imager (INDEC Biosystems, Inc., Los Altos, CA). Mice with similar fluorescent areas were selected and randomly grouped. Both cell lines expressed high level of AKR1C3. Prodrug 3424 was dosed intravenously (IV) at 1.25, 2.5 mg/kg or 5 mg/kg Q7D×2 for the HepG2 orthotopic model or at 0.625, 1.25 or 2.5 mg/kg for the H460 xenograft model with a regimen of Q7D×2, 1 week off, then Q7D×2 again. Sorafenib was used as the positive control in the HepG2 model and was dosed orally at 30 mg/kg with a regimen of QD×5×7 cycles. Taxol was used as the positive control in the H460 model and was administered at 15 mg/kg IV with a regimen of BIW×4. During the experiments, mice were observed daily and body weight was measured twice a week. Tumor burden was monitored twice a week either by caliper measurement (H460) or FluorVivo fluorescence imager (H460-GFP and HepG2-GFP).

[2] = system: HepG2 orthotopic xenograft; format: in vivo, mice; settings: for TGI: Day 34
Procedure: as §3

SNU-475 = assay: In vitro proliferation assay, liver cancer cell line SNU-475; format: cell-based; settings: Homo sapiens, 96 hours of drug exposure, AKR1C3 protein high, read-out: 3424 IC50
Procedure: as §2

H460 cells = assay: Cytotoxicity in H460 cells in the absence or presence of AKR1C3 inhibitor 3021; settings: Homo sapiens, NCI-H460, 2 h, read-out: IC50 (cytotoxicity)
Procedure: Exponentially growing cells were seeded 24 hours before the addition of test compounds. After addition of test compounds, the plates were incubated for the indicated hours at 37° C. in a standard tissue culture incubator. At the end of the experiment, the viable cells were detected using either a CellTiter Glo (CTG) assay kit or AlamarBlue^(28,29). […] For 3021 experiments, cells were pretreated with 3 μM of 3021 for 2 h prior to compound treatment under air. IC50 was calculated as described above.

recombinant human AKR1C4 = biological target: T1, recombinant human AKR1C4 (Homo sapiens, UniProt P17516); assay: Incubation of 3424 with AKR1C4 (2660 production, LC-MS/MS); format: biochemical
T1 construct: purchased Sigma
T1 sequence (P17516 whole entry): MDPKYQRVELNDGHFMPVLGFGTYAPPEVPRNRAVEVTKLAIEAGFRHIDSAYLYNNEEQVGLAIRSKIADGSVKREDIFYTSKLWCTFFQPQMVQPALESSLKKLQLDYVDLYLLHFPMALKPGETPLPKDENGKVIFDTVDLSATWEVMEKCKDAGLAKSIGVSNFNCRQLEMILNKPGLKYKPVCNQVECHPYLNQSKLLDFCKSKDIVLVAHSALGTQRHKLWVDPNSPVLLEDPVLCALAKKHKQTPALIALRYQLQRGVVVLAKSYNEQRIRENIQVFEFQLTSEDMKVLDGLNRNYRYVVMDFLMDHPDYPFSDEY

PA1280 PDX = assay: Pancreatic cancer PDX model PA1280; format: in vivo, mice
Procedure: as §1

LU2505 PDX = assay: Lung cancer PDX model LU2505 (higher AKR1C3); format: in vivo, mice
Procedure: as §1

C3A = assay: In vitro proliferation assay, liver cancer cell line C3A; format: cell-based; settings: Homo sapiens, 96 hours of drug exposure, AKR1C3 protein high, read-out: 3424 IC50
Procedure: as §2

C[C@H](OP(=O)(N1CC1)N1CC1)c1ccc([N+](=O)[O-])c(Oc2cccc(C(=O)N(C)C)c2)c1 [Compound 3424, (S)-1-(3-(3-N,N-dimethylaminocarbonyl)phenoxyl-4-mtrophenyl)-1-ethyl-N,N′-bis(ethylene)phosphoramidate]
TGI (LU2057 PDX; 3424 2.5 mg/kg i.v. Q7D × 3): −20.9% | tolerability / body weight loss (LU2057 PDX; LU2057, all tested doses): no body weight loss | IC50 (NCI-H1792): 4.5 nM | IC50 (HLF): > 1000 nM | IC50 (SNU-398): > 1000 nM | TGI (VCaP xenograft; 3424 5 mg/kg weekly IV for 5 doses, castrated male BALB/c nude mice): 148% | tolerability / body weight loss during treatment (VCaP xenograft; VCaP model, data not shown): no significant body weight loss | IC50 (NCI-H23): > 1000 nM | IC50 (NCI-H2110): 1.1 nM | IC50 (NCI-H2228; Homo sapiens, NCI-H2228, 72 hours of drug exposure, read-out: 3424 IC50): 0.21 nM | enhanced cytotoxicity in line expressing high AKR1C3 versus low/no AKR1C3 (NCI-H2228; NCI-H2228 NSCLC line): up to 5000 fold | TGI ([1]; 3424 0.625 mg/kg i.v. Q7D × 2): 60.2% | TGI ([1]; 3424 1.25 mg/kg i.v. Q7D × 2): 67.2% | TGI ([1]; 3424 2.5 mg/kg i.v. Q7D × 2, 2.5 mg/kg): 88% | TGI ([2]; 3424 1.25 mg/kg i.v. Q7D × 2): 52.4% | complete regression rate ([2]; 3424 2.5 mg/kg i.v. Q7D × 2): 80% | TGI ([2]; 3424 2.5 mg/kg i.v. Q7D × 2): 91.5% | complete regression rate ([2]; 3424 5 mg/kg i.v. Q7D × 2): 100% | TGI ([2]; 3424 5 mg/kg i.v. Q7D × 2): 101.2% | body weight loss ([2]; mouse, in vivo): no body weight loss | IC50 (SNU-475): 15 nM | IC50 (H460 cells): 4 nM | metabolism by AKR1C4 (recombinant human AKR1C4): not metabolized | 2660 Concentration (recombinant human AKR1C4; 3424 concentration 50 μM, incubation with AKR1C4, BQL: below quantification limit (0.25 ng/mL)): BQL | TGI (PA1280 PDX; 3424 2.5 mg/kg i.v. Q7D × 3): 77.4% | tolerability / body weight loss (PA1280 PDX; PA1280, all tested doses): no body weight loss | TGI (LU2505 PDX; 3424 1.25 mg/kg i.v. Q7D × 3): 105.0% | TGI (LU2505 PDX; 3424 2.5 mg/kg i.v. Q7D × 3): 105.2% | TGI (LU2505 PDX; 3424 5 mg/kg i.v. Q7D × 3): 105.2% | tolerability / body weight loss (LU2505 PDX; LU2505, all tested doses): no body weight loss | IC50 (C3A): 5 nM
